Assay results taken from patent US12325696B2, “Indazole derivative, preparation method therefor, and pharmaceutical application thereof” (JIANGSU HENGRUI MEDICINE CO., LTD., priority 2019, dated 2025).
Like-named read-outs stand apart in the source and are kept apart here.

Experiments:
MCF7 cell = experiment: Inhibition of proliferation of MCF7 cell (CellTiter-Glo, 144 hours); format: cell-based; conditions: Homo sapiens; for IC50: MCF7, CellTiter-Glo, read-out: IC50 of the inhibitory effect on the proliferation of MCF7 cell; for Emax: MCF7 cell proliferation, read-out: Maximum inhibition
Method in brief: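 Seeded overnight, MCF7 cells were treated in MEM with 2% FBS with nine 4-fold dilutions from 100 nM (0.5% DMSO blank). Incubation 144 h at 37° C, 5% CO2. CellTiter-Glo luminescence read; IC50 from signal versus log concentration.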

[1] = Pharmacokinetics in BALB/C nude mice after intragastric administration; format: in vivo; conditions: female, mouse, plasma, po; for Vd/F: read-out: Apparent volume of distribution Vz/F; for AUC: read-out: Area under curve AUC; for CL/F: read-out: Clearance rate CL/F; for half-life: read-out: Half-life t1/2 (converted); for Cmax: read-out: Plasma concentration Cmax; for MRT: read-out: Residence time MRT
Procedure: BALB/C nude mice were used as test animals. The drug concentration in plasma at different time points was determined by LC/MS/MS method after intragastric administration of the compounds of the present disclosure to BALB/C nude mice. The pharmacokinetic behavior and characteristics of the compounds of the present disclosure was studied and evaluated in BALB/C nude mice.
Sixty-three BALB/C nude mice (female, equally divided into seven groups, nine mice per group) were purchased from Jiesijie Laboratory Animal Co., LTD. (Certificate No.: SCXK (Shanghai)2013-0006).
For the compound of Example 14, an appropriate amount of the compound was weighed, followed by the addition of 5% of DMSO, 5% of tween 80 and 90% of normal saline by volume to obtain a colorless, clear and transparent solution (0.1 mg/mL).
For the compounds of Examples 1, 15 and 39 to 42, an appropriate amount of the compound was weighed, followed by the addition of 9% of PEG400, 0.5% of tween 80 and 90.5% of 0.5% CMC-Na by volume to obtain a colorless, clear and transparent solution (1.5 mg/mL).
After an overnight fast, the test compounds were intragastrically administered at an administration volume of 0.2 ml/10 g respectively. The administration dose of the compound of Example 14 was 2 mg/kg, and the administration dose of the compounds of Examples 1, 15 and 39 to 42 was 30 mg/kg.
For the compounds of Examples 1 and 39, 0.1 ml of blood was taken at 0.25, 0.5, 1.0, 2.0, 4.0, 6.0, 8.0, 11.0 and 24.0 hours after the administration (from three animals per time point). The samples were stored in blood collection tubes treated with heparin (Sinopharm Chemical Reagent Co., Ltd.), and centrifuged for 10 minutes at 3500 rpm to separate the blood plasma. The blood plasma was stored at −20° C. The content of the test compound in the plasma of nude mouse after intragastrical administration of the test compound was determined. 25 μL of nude mouse plasma at each time point after the administration was taken, followed by the addition of 30 μL of the internal standard camptothecin solution (National Institutes for Food and Drug Control) (100 ng/mL) and 225 μL of acetonitrile. The resulting solution was vortex-mixed for 5 minutes, and centrifuged for 10 minutes (3700 to 4000 rpm). 0.1 to 0.5 μL of the supernatant was taken from the plasma samples for LC/MS/MS analysis.
For the compounds of Examples 14 and 15, 0.1 ml of blood was taken at 0.5, 1.0, 2.0, 4.0, 6.0, 8.0, 11.0 and 24.0 hours after the administration (from three animals per time point). The samples were stored in heparinized tubes, and centrifuged for 10 minutes at 3500 rpm to separate the blood plasma. The blood plasma was stored at −20° C. The content of the test compound in the plasma of nude mouse after intragastrical administration of the test compound was determined. 25 μL of nude mouse plasma at each time point after the administration was taken, followed by the addition of 30 μL of the internal standard camptothecin solution (100 ng/mL) and 200 μL of acetonitrile. The resulting solution was vortex-mixed for 5 minutes, and centrifuged for 10 minutes (3700 rpm). 0.25 to 1 μL of the supernatant was taken from the plasma samples for LC/MS/MS analysis.
For the compounds of Examples 40 to 42, 0.1 ml of blood was taken at 0.25, 0.5, 1.0, 2.0, 4.0, 6.0, 8.0, 11.0 and 24.0 hours after the administration (from three animals per time point). The samples were stored in tubes anticoagulated with EDTA-K2 (Shanghai Titan Scientific Co., Ltd.), and centrifuged for 1 minute at 10000 rpm and 4° C. The blood plasma was separated within one hour, and stored at −20° C. The process from blood collection to centrifugation was operated under an ice bath condition. The content of the test compound in the plasma of nude mouse after intragastrical administration of the test compound was determined. […]

Compound | IC50 (MCF7 cell) [nM] | Emax (MCF7 cell) [%] | Vd/F ([1]; 30 mg/kg) [L/kg] | AUC ([1]; 30 mg/kg) [ng·h/mL] | CL/F ([1]; 30 mg/kg) [mL/min/kg] | half-life ([1]; 30 mg/kg) [h] | Cmax ([1]; 30 mg/kg) [ng/mL] | MRT ([1]; 30 mg/kg) [h] | Vd/F ([1]; 2 mg/kg) [L/kg] | AUC ([1]; 2 mg/kg) [ng·h/mL] | bioavailability ([1]; 2 mg/kg, read-out: Bioavailability F) [%] | CL/F ([1]; 2 mg/kg) [mL/min/kg] | half-life ([1]; 2 mg/kg) [h] | Cmax ([1]; 2 mg/kg) [ng/mL] | MRT ([1]; 2 mg/kg) [h]
O=C(/C=C/CNC1(COc2ccc(/C(=C(/CC(F)(F)F)c3ccccc3)c3ccc4[nH]nc(F)c4c3)cn2)CC1)N1CCOCC1 [Example 1, (E)-1-Morpholino-4-((1-(((5-((Z)-4,4,4-trifluoro-1-(3-fluoro-1H-indazol-5-yl)-2-phenylbut-1-en-1-yl)pyridin-2-yl)oxy)methyl)cyclopropyl)amino)but-2-en-1-one] | 0.5 | 100 | 8.76 | 9850 | 50.8 | 1.99 | 4280 | 1.6 | – | – | – | – | – | – | –
CN(C)C(=O)/C=C/CN1CCC[C@@H](Oc2ccc(/C(=C(/CC(F)(F)F)c3ccccc3)c3ccc4[nH]nc(F)c4c3)cn2)C1 [Example 14, (E)-N,N-Dimethyl-4-((R)-3-((5-((Z)-4,4,4-trifluoro-1-(3-fluoro-1H-indazol-5-yl)-2-phenylbut-1-en-1-yl)pyridin-2-yl)oxy)piperidin-1-yl)but-2-enamide] | 0.8 | 108 | – | – | – | – | – | – | 14.2 | 205 | 24.8 | 163 | 1.01 | 87 | 1.9
O=C(/C=C/CN1CCC[C@@H](Oc2ccc(/C(=C(/CC(F)(F)F)c3ccccc3)c3ccc4[nH]nc(F)c4c3)cn2)C1)N1CCCC1 [Example 15, (E)-1-(Pyrrolidin-1-yl)-4-((R)-3-((5-((Z)-4,4,4-trifluoro-1-(3-fluoro-1H-indazol-5-yl)-2-phenylbut-1-en-1-yl)pyridin-2-yl)oxy)piperidin-1-yl)but-2-en-1-one] | 0.2 | 107 | 5.87 | 6560 | 76 | 0.89 | 4570 | 1.41 | – | – | – | – | – | – | –
CN(C)C(=O)/C=C/CNC1(COc2ccc(/C(=C(/CC(F)(F)F)c3ccccc3)c3ccc4[nH]nc(F)c4c3)cn2)CC1 [Example 39, (E)-N,N-Dimethyl-4-((1-(((5-((Z)-4,4,4-trifluoro-1-(3-fluoro-1H-indazol-5-yl)-2-phenylbut-1-en-1-yl)pyridin-2-yl)oxy)methyl)cyclopropyl)amino)but-2-enamide] | 0.2 | 113 | 2.47 | 16500 | 30.3 | 0.94 | 6600 | 1.57 | – | – | – | – | – | – | –
O=C(/C=C/CNC1(COc2ccc(/C(=C(/CC(F)(F)F)c3ccccc3)c3ccc4[nH]nc(F)c4c3)cn2)CC1)N1CC(O)C1 [Example 40, (E)-1-(3-Hydroxyazetidin-1-yl)-4-((1-(((5-((Z)-4,4,4-trifluoro-1-(3-fluoro-1H-indazol-5-yl)-2-phenylbut-1-en-1-yl)pyridin-2-yl)oxy)methyl)cyclopropyl)amino)but-2-en-1-one] | 0.1 | 115 | 4.59 | 11900 | 42.1 | 1.26 | 3560 | 2.3 | – | – | – | – | – | – | –
O=C(/C=C/CNC1(COc2ccc(/C(=C(/CC(F)(F)F)c3ccccc3)c3ccc4[nH]nc(F)c4c3)cn2)CC1)N1CC[C@H](O)C1 [Example 41, (E)-1-((S)-3-Hydroxypyrrolidin-1-yl)-4-((1-(((5-((Z)-4,4,4-trifluoro-1-(3-fluoro-1H-indazol-5-yl)-2-phenylbut-1-en-1-yl)pyridin-2-yl)oxy)methyl)cyclopropyl)amino)but-2-en-1-one] | 0.1 | 115 | 14.4 | 5020 | 99.6 | 1.67 | 2890 | 2.26 | – | – | – | – | – | – | –
O=C(/C=C/CNC1(COc2ccc(/C(=C(/CC(F)(F)F)c3ccccc3)c3ccc4[nH]nc(F)c4c3)cn2)CC1)N1CCO[C@@H](CO)C1 [Example 42, (E)-1-((R)-2-(Hydroxymethyl)morpholino)-4-((1-(((5-((Z)-4,4,4-trifluoro-1-(3-fluoro-1H-indazol-5-yl)-2-phenylbut-1-en-1-yl)pyridin-2-yl)oxy)methyl)cyclopropyl)amino)but-2-en-1-one] | 0.03 | 105 | 11.5 | 4510 | 111 | 1.2 | 2570 | 1.56 | – | – | – | – | – | – | –
